Assay: Cytotoxicity against human A549 cells by SRB assay
Assay type: toxicity, cell-based

| Structure (SMILES) | CC50 [µM] |
| --- | --- |
| COc1ccc(C(=O)N/N=C(\C)c2ccc(NC(=O)Cc3cccs3)cc2)cc1 | 37.6 |
| C/C(=N\NC(=O)c1ccc(F)cc1)c1ccc(NC(=O)Cc2cccs2)cc1 | 55.3 |
| CCC(CC)O[C@@H]1C=C(C(=O)O)C[C@H](N)[C@H]1NC(C)=O [OSELTAMIVIR CARBOXYLATE] | 61.2 |

Assay: Inhibition of Influenza A virus H5N1 neuraminidase

| Structure (SMILES) | IC50 [µM] |
| --- | --- |
| C/C(=N\NC(=O)Cc1cccc2ccccc12)c1ccc(NC(=O)Cc2cccs2)cc1 | 2.78 |
| C/C(=N\NC(=O)c1ccc([N+](=O)[O-])cc1)c1ccc(NC(=O)c2ccco2)cc1 | 1.53 |
| C/C(=N\NC(=O)c1ccc(Cl)cc1)c1ccc(NC(=O)c2ccco2)cc1 | 21.3 |
| C/C(=N\NC(=O)c1ccc([N+](=O)[O-])cc1)c1ccc(NC(=O)Cc2cccs2)cc1 | 6.1 |
| COc1ccc(C(=O)N/N=C(\C)c2ccc(NC(=O)Cc3cccs3)cc2)cc1 | 0.13 |
| C/C(=N\NC(=O)c1ccc(F)cc1)c1ccc(NC(=O)c2ccco2)cc1 | 19.4 |
| C/C(=N\NC(=O)Cc1cccc2ccccc12)c1ccc(NC(=O)c2ccco2)cc1 | 46.8 |
| C/C(=N\NC(=O)c1ccc(Cl)cc1)c1ccc(NC(=O)Cc2cccs2)cc1 | 0.31 |
| C/C(=N\NC(=O)c1ccc(C(C)(C)C)cc1)c1ccc(NC(=O)Cc2cccs2)cc1 | 0.94 |
| COc1ccc(C(=O)N/N=C(\C)c2ccc(NC(=O)c3ccco3)cc2)cc1 | 32 |
| C/C(=N\NC(=O)c1ccc(F)cc1)c1ccc(NC(=O)Cc2cccs2)cc1 | 23.6 |
| C/C(=N\NC(=O)c1ccc(O)cc1)c1ccc(NC(=O)Cc2cccs2)cc1 | 0.65 |
| C/C(=N\NC(=O)c1ccc(C(C)(C)C)cc1)c1ccc(NC(=O)c2ccco2)cc1 | 28.6 |
| C/C(=N\NC(=O)c1ccc(O)cc1)c1ccc(NC(=O)c2ccco2)cc1 | 0.2 |
| CCC(CC)O[C@@H]1C=C(C(=O)O)C[C@H](N)[C@H]1NC(C)=O [OSELTAMIVIR CARBOXYLATE] | 0.31 |
